From the supplement of paper PMC10307832

What was measured:
Assay in all cases: relative viability (nuclei count vs DMSO), 5 days (fraction); higher = more cells survive
[1] = system: NCI-H2023
How it was run: (§1)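 Five library-drug doses in √10 steps were combined with a fixed anchor-drug dose, or a single drug was given alone, by pin tool to lung cancer cell lines in 1536-well plates the day after seeding. Nuclei were stained and counted after 5 days. Relative viability is the nuclei count in treated wells over that in vehicle wells, taken as the median of duplicate plates.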

[2] = system: SW 1573
How it was run: as §1

[3] = system: LC-2-ad
How it was run: as §1

[4] = system: ABC-1
How it was run: as §1

[5] = system: NCI-H2347
How it was run: as §1

[6] = system: NCI-H522
How it was run: as §1

[7] = system: NCI-H647
How it was run: as §1

[8] = system: A-427
How it was run: as §1

[9] = system: UMC-11
How it was run: as §1

[10] = system: NCI-H1944
How it was run: as §1

[11] = system: NCI-H838
How it was run: as §1

[12] = system: NCI-H1793
How it was run: as §1

[13] = system: NCI-H1915
How it was run: as §1

[14] = system: NCI-H358
How it was run: as §1

[15] = system: NCI-H2342
How it was run: as §1

[16] = system: NCI-H441
How it was run: as §1

[17] = system: NCI-H2009
How it was run: as §1

[18] = system: NCI-H322M
How it was run: as §1

[19] = system: RERF-LC-KJ
How it was run: as §1

[20] = system: HCC-15
How it was run: as §1

[21] = system: EPLC-272H
How it was run: as §1

[22] = system: LK-2
How it was run: as §1

[23] = system: NCI-H1734
How it was run: as §1

For `CCNC(=O)c1noc(-c2cc(C(C)C)c(O)cc2O)c1-c1ccc(CN2CCOCC2)cc1` [Luminespib] + O=C(c1cc(Cc2n[nH]c(=O)c3ccccc23)ccc1F)N1CCN(C(=O)C2CC2)CC1 [Olaparib] (partner 8 µM), the relative viability ([1]; first compound 0.002 µM) was 0.459, the relative viability ([1]; first compound 0.006325 µM) was 0.418 and the relative viability ([1]; first compound 0.02 µM) was 0.219. The relative viability ([1]; first compound 0.06325 µM) was 0.056, the relative viability ([1]; first compound 0.2 µM) was 0.0536 and the relative viability ([2]; first compound 0.002 µM) was 0.445. It also gave a relative viability ([2]; first compound 0.006325 µM) of 0.4, a relative viability ([2]; first compound 0.02 µM) of 0.165 and a relative viability ([2]; first compound 0.06325 µM) of 0.101. For the same molecule, the relative viability ([2]; first compound 0.2 µM) was 0.0793, the relative viability ([3]; first compound 0.002 µM) was 0.704 and the relative viability ([3]; first compound 0.006325 µM) was 0.713. The relative viability ([3]; first compound 0.02 µM) was 0.866, the relative viability ([3]; first compound 0.06325 µM) was 0.48 and the relative viability ([3]; first compound 0.2 µM) was 0.297. It also gave a relative viability ([4]; first compound 0.002 µM) of 0.928, a relative viability ([4]; first compound 0.006325 µM) of 1.02 and a relative viability ([4]; first compound 0.02 µM) of 0.526. For the same molecule, the relative viability ([4]; first compound 0.06325 µM) was 0.337, the relative viability ([4]; first compound 0.2 µM) was 0.244 and the relative viability ([5]; first compound 0.002 µM) was 0.631. For the same molecule, the relative viability ([5]; first compound 0.006325 µM) was 0.617, the relative viability ([5]; first compound 0.02 µM) was 0.7 and the relative viability ([5]; first compound 0.06325 µM) was 0.408. The relative viability ([5]; first compound 0.2 µM) was 0.296, the relative viability ([6]; first compound 0.002 µM) was 0.757 and the relative viability ([6]; first compound 0.006325 µM) was 0.61. It also gave a relative viability ([6]; first compound 0.02 µM) of 0.624, a relative viability ([6]; first compound 0.06325 µM) of 0.437 and a relative viability ([6]; first compound 0.2 µM) of 0.4. For the same molecule, the relative viability ([7]; first compound 0.002 µM) was 0.536, the relative viability ([7]; first compound 0.006325 µM) was 0.577 and the relative viability ([7]; first compound 0.02 µM) was 0.273. It also gave a relative viability ([7]; first compound 0.06325 µM) of 0.0706, a relative viability ([7]; first compound 0.2 µM) of 0.059 and a relative viability ([8]; first compound 0.002 µM) of 0.782. The relative viability ([8]; first compound 0.006325 µM) was 0.732, the relative viability ([8]; first compound 0.02 µM) was 0.716 and the relative viability ([8]; first compound 0.06325 µM) was 0.445. It also gave a relative viability ([8]; first compound 0.2 µM) of 0.251, a relative viability ([9]; first compound 0.002 µM) of 0.391 and a relative viability ([9]; first compound 0.006325 µM) of 0.403. For the same molecule, the relative viability ([9]; first compound 0.02 µM) was 0.401, the relative viability ([9]; first compound 0.06325 µM) was 0.205 and the relative viability ([9]; first compound 0.2 µM) was 0.149. For the same molecule, the relative viability ([10]; first compound 0.002 µM) was 0.445, the relative viability ([10]; first compound 0.006325 µM) was 0.394 and the relative viability ([10]; first compound 0.02 µM) was 0.364. The relative viability ([10]; first compound 0.06325 µM) was 0.418, the relative viability ([10]; first compound 0.2 µM) was 0.33 and the relative viability ([11]; first compound 0.002 µM) was 0.772. For the same molecule, the relative viability ([11]; first compound 0.006325 µM) was 0.782, the relative viability ([11]; first compound 0.02 µM) was 0.723 and the relative viability ([11]; first compound 0.06325 µM) was 0.122. The relative viability ([11]; first compound 0.2 µM) was 0.129, the relative viability ([12]; first compound 0.002 µM) was 0.999 and the relative viability ([12]; first compound 0.006325 µM) was 0.975. For the same molecule, the relative viability ([12]; first compound 0.02 µM) was 0.7, the relative viability ([12]; first compound 0.06325 µM) was 0.117 and the relative viability ([12]; first compound 0.2 µM) was 0.167. It also gave a relative viability ([13]; first compound 0.002 µM) of 0.254, a relative viability ([13]; first compound 0.006325 µM) of 0.269 and a relative viability ([13]; first compound 0.02 µM) of 0.306. For the same molecule, the relative viability ([13]; first compound 0.06325 µM) was 0.148, the relative viability ([13]; first compound 0.2 µM) was 0.124 and the relative viability ([14]; first compound 0.002 µM) was 0.637. It also gave a relative viability ([14]; first compound 0.006325 µM) of 0.655, a relative viability ([14]; first compound 0.02 µM) of 0.577 and a relative viability ([14]; first compound 0.06325 µM) of 0.0817. It also gave a relative viability ([14]; first compound 0.2 µM) of 0.0712, a relative viability ([15]; first compound 0.002 µM) of 0.411 and a relative viability ([15]; first compound 0.006325 µM) of 0.512. For the same molecule, the relative viability ([15]; first compound 0.02 µM) was 0.324, the relative viability ([15]; first compound 0.06325 µM) was 0.348 and the relative viability ([15]; first compound 0.2 µM) was 0.238. The relative viability ([16]; first compound 0.002 µM) was 0.524, the relative viability ([16]; first compound 0.006325 µM) was 0.569 and the relative viability ([16]; first compound 0.02 µM) was 0.714. The relative viability ([16]; first compound 0.06325 µM) was 0.119, the relative viability ([16]; first compound 0.2 µM) was 0.117 and the relative viability ([17]; first compound 0.002 µM) was 0.763. For the same molecule, the relative viability ([17]; first compound 0.006325 µM) was 0.67, the relative viability ([17]; first compound 0.02 µM) was 0.701 and the relative viability ([17]; first compound 0.06325 µM) was 0.409. The relative viability ([17]; first compound 0.2 µM) was 0.0486, the relative viability ([18]; first compound 0.002 µM) was 0.799 and the relative viability ([18]; first compound 0.006325 µM) was 0.738. For the same molecule, the relative viability ([18]; first compound 0.02 µM) was 0.729, the relative viability ([18]; first compound 0.06325 µM) was 0.344 and the relative viability ([18]; first compound 0.2 µM) was 0.439. For the same molecule, the relative viability ([19]; first compound 0.002 µM) was 0.857, the relative viability ([19]; first compound 0.006325 µM) was 0.934 and the relative viability ([19]; first compound 0.02 µM) was 0.49. The relative viability ([19]; first compound 0.06325 µM) was 0.235, the relative viability ([19]; first compound 0.2 µM) was 0.212 and the relative viability ([20]; first compound 0.002 µM) was 0.778. The relative viability ([20]; first compound 0.006325 µM) was 0.682, the relative viability ([20]; first compound 0.02 µM) was 0.734 and the relative viability ([20]; first compound 0.06325 µM) was 0.345. For the same molecule, the relative viability ([20]; first compound 0.2 µM) was 0.154, the relative viability ([21]; first compound 0.002 µM) was 0.812 and the relative viability ([21]; first compound 0.006325 µM) was 0.702. The relative viability ([21]; first compound 0.02 µM) was 0.709, the relative viability ([21]; first compound 0.06325 µM) was 0.0637 and the relative viability ([21]; first compound 0.2 µM) was 0.082. It also gave a relative viability ([22]; first compound 0.002 µM) of 0.884, a relative viability ([22]; first compound 0.006325 µM) of 0.89 and a relative viability ([22]; first compound 0.02 µM) of 0.519. It also gave a relative viability ([22]; first compound 0.06325 µM) of 0.11, a relative viability ([22]; first compound 0.2 µM) of 0.114 and a relative viability ([23]; first compound 0.002 µM) of 0.646. For the same molecule, the relative viability ([23]; first compound 0.006325 µM) was 0.595, the relative viability ([23]; first compound 0.02 µM) was 0.476 and the relative viability ([23]; first compound 0.06325 µM) was 0.152. For the same molecule, the relative viability ([23]; first compound 0.2 µM) was 0.13.
